For 49 molecules, IC50 results are on record in US20090239841A1, “Diaryl Ureas as CB1 Antagonists” (priority 2004, published 2009).

For the assay, the target named is T1, hCB1 (Homo sapiens, UniProt P21554).
T1 construct: made in house; host or cells: Sf9 insect cells (baculovirus), P2 membranes
T1 sequence (P21554 whole entry): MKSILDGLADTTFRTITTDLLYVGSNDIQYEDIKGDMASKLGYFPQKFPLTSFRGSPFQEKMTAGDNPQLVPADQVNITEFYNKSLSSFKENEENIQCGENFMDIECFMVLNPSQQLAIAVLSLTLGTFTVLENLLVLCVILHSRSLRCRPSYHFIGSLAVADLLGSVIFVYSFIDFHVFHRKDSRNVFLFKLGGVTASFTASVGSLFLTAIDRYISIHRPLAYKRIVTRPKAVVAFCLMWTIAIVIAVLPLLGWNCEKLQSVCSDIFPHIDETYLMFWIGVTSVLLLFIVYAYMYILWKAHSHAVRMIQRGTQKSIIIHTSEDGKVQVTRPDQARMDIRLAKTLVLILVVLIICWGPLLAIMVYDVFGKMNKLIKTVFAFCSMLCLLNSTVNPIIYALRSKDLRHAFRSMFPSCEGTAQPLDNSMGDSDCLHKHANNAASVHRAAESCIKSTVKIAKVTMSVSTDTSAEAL
Description: Agonist-induced GTP binding (GTPγ35S) assay at CB1, Example 8. It counts as biochemical. As to conditions: IC50 at CB1, determined as described in Example 8; read-out: IC50. An outline of the steps: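 Antagonism read as inhibition of 1 nM CP55,940-stimulated GTPγ35S ([…]) binding, compounds at 10^−10 to 10^−5 M. Baculovirus-infected Sf9 membranes bearing hCB1 plus G-protein subunits, 60 min room-temperature incubation with 5 μM GDP. Filtration and scintillation counting; data as percent over basal.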
What is called IC50 is the midpoint of a concentration-inhibition curve. In the case of `CCOC(=O)c1cccc(NC(=O)Nc2ccc(OCC)cc2)c1` [Compound 664, ethyl 3-({[(4-ethoxyphenyl)amino]carbonyl}amino)benzoate], the half-inhibitory concentration (IC50) is < 2 µM. The figure for `COCc1cccc(NC(=O)Nc2ccc(C(=O)OC)cc2)c1` [Compound 665, methyl 4-[({[3-(methoxymethyl)phenyl]amino}carbonyl)amino]benzoate] is < 2 µM; for `CCOC(=O)c1ccc(NC(=O)Nc2cccc(COC)c2)cc1` [Compound 666, ethyl 4-[({[3-(methoxymethyl)phenyl]amino}carbonyl)amino]benzoate] it is < 2 µM.

As for `COCc1ccc(NC(=O)Nc2cccc(C(=O)OC)c2)cc1` [Compound 667, methyl 3-[({[4-(methoxymethyl)phenyl]amino}carbonyl)amino]benzoate], the IC50 was < 2 µM. Consider `COCc1ccc(NC(=O)Nc2ccc(C(=O)OC)cc2)cc1` [Compound 668, methyl 4-[({[4-(methoxymethyl)phenyl]amino}carbonyl)amino]benzoate], for which the IC50 is < 2 µM. For the molecule `CCOC(=O)c1cccc(NC(=O)Nc2ccc(COC)cc2)c1` [Compound 669, ethyl 3-[({[4-(methoxymethyl)phenyl]amino}carbonyl)amino]benzoate], the IC50 was < 2 µM.

Regarding `CCOC(=O)c1ccc(NC(=O)Nc2ccc(COC)cc2)cc1` [Compound 670, ethyl 4-[({[4-(methymethyl)phenyl]amino}carbonyl)amino]benzoate], the IC50 is < 2 µM. As to `CCCOc1ccc(NC(=O)Nc2cccc(C(=O)OCC)c2)cc1` [Compound 671, ethyl 3-({[(4-propoxyphenyl)amino]carbonyl}amino)benzoate], the IC50 is < 2 µM. As for `CCOC(=O)c1cccc(NC(=O)Nc2cccc(OC(C)C)c2)c1` [Compound 672, ethyl 3-({[(3-isopropoxyphenyl)amino]carbonyl}amino)benzoate], the IC50 was < 2 µM.

With `CCOC(=O)c1ccc(NC(=O)Nc2cccc(OC(C)C)c2)cc1` [Compound 673, ethyl 4-({[(3-isopropoxyphenyl)amino]carbonyl}amino)benzoate], the IC50 is < 2 µM.

Regarding `CCOC(=O)c1cccc(NC(=O)Nc2ccc(OC(C)C)cc2)c1` [Compound 674, ethyl 3-({[(4-isopropoxyphenyl)amino]carbonyl}amino)benzoate], the IC50 was < 2 µM. The figure for `CCOC(=O)c1ccc(NC(=O)Nc2ccc(OC(C)C)cc2)cc1` [Compound 675, ethyl 4-({[(4-isopropoxyphenyl)amino]carbonyl}amino)benzoate] is < 2 µM; for `COC(=O)c1cccc(NC(=O)Nc2cccc(OC(F)F)c2)c1` [Compound 676, methyl 3-[({[3-(difluoromethoxy)phenyl]amino}carbonyl)amino]benzoate] it is < 2 µM; for `COC(=O)c1ccc(NC(=O)Nc2cccc(OC(F)F)c2)cc1` [Compound 677, methyl 4-[({[3-(difluoromethoxy)phenyl]amino}carbonyl)amino]benzoate] it is < 2 µM.

Regarding `CCOC(=O)c1ccc(NC(=O)Nc2cccc(OC(F)F)c2)cc1` [Compound 678, ethyl 4-[({[3-(difluoromethoxy)phenyl]amino}carbonyl)amino]benzoate], the IC50 was < 2 µM. As to `COC(=O)c1cccc(NC(=O)Nc2ccc(OC(F)F)cc2)c1` [Compound 679, methyl 3-[({[4-(difluoromethoxy)phenyl]amino}carbonyl)amino]benzoate], the IC50 was < 2 µM. With `CCOc1cccc(NC(=O)Nc2ccc(C)c(C)c2)c1` [Compound 680, 1-(3,4-dimethylphenyl)-3-(3-ethoxyphenyl)urea], the IC50 was < 2 µM. The figure for `CCOc1cccc(NC(=O)Nc2ccc(C)c(F)c2)c1` [Compound 681, 1-(3-ethoxyphenyl)-3-(3-fluoro-4-methylphenyl)urea] is < 2 µM. In the case of `CCOc1cccc(NC(=O)Nc2ccc(F)c(C)c2)c1` [Compound 682, 1-(3-ethoxyphenyl)-3-(4-fluoro-3-methylphenyl)urea], the 50% inhibitory concentration (IC50) was < 2 µM. The same measure for `CCOc1cccc(NC(=O)Nc2ccc(F)c(F)c2)c1` [Compound 683, 1-(3,4-difluorophenyl)-3-(3-ethoxyphenyl)urea]: < 2 µM. For `COCc1ccc(NC(=O)Nc2ccc(C)c(C)c2)cc1` [Compound 684, 1-(3,4-dimethylphenyl)-3-[4-(methoxymethyl)phenyl]urea], the IC50 was < 2 µM.

Consider `COCc1ccc(NC(=O)Nc2ccc(C)c(F)c2)cc1` [Compound 685, 1-(3-fluoro-4-methylphenyl)-3-[4-(methoxymethyl)phenyl]urea], for which the IC50 was < 2 µM. Turning to `CCCOc1ccc(NC(=O)Nc2ccc(F)c(F)c2)cc1` [Compound 686, 1-(3,4-difluorophenyl)-3-(4-propoxyphenyl)urea], the IC50 is < 2 µM.

In the case of `Cc1ccc(NC(=O)Nc2cccc(OC(C)C)c2)cc1C` [Compound 687, 1-(3,4-dimethylphenyl)-3-(3-isopropoxyphenyl)urea], the IC50 was < 2 µM. The same measure for `Cc1ccc(NC(=O)Nc2cccc(OC(C)C)c2)cc1F` [Compound 688, 1-(3-fluoro-4-methylphenyl)-3-(3-isopropoxyphenyl)urea]: < 2 µM. The figure for `Cc1cc(NC(=O)Nc2cccc(OC(C)C)c2)ccc1F` [Compound 689, 1-(4-fluoro-3-methylphenyl)-3-(3-isopropoxyphenyl)urea] is < 2 µM; for `CC(C)Oc1cccc(NC(=O)Nc2ccc(F)c(F)c2)c1` [Compound 690, 1-(3,4-difluorophenyl)-3-(3-isopropoxyphenyl)urea] it is < 2 µM.

As for `Cc1ccc(NC(=O)Nc2ccc(OC(C)C)cc2)cc1C` [Compound 691, 1-(3,4-dimethylphenyl)-3-(4-isopropoxyphenyl)urea], the IC50 is < 2 µM. `Cc1ccc(NC(=O)Nc2ccc(OC(C)C)cc2)cc1F` [Compound 692, 1-(3-fluoro-4-methylphenyl)-3-(4-isopropoxyphenyl)urea]: the IC50 is < 2 µM. The same measure for `Cc1cc(NC(=O)Nc2ccc(OC(C)C)cc2)ccc1F` [Compound 693, 1-(4-fluoro-3-methylphenyl)-3-(4-isopropoxyphenyl)urea]: < 2 µM; for `CC(C)Oc1ccc(NC(=O)Nc2ccc(F)c(F)c2)cc1` [Compound 694, 1-(3,4-difluorophenyl)-3-(4-isopropoxyphenyl)urea]: < 2 µM. The figure for `Cc1ccc(NC(=O)Nc2cccc(OC(F)F)c2)cc1C` [Compound 695, 1-[3-(difluoromethoxy)phenyl]-3-(3,4-dimethylphenyl)urea] is < 2 µM; for `Cc1ccc(NC(=O)Nc2cccc(OC(F)F)c2)cc1F` [Compound 696, 1-[3-(difluoromethoxy)phenyl]-3-(3-fluoro-4-methylphenyl)urea] it is < 2 µM. The figure for `Cc1cc(NC(=O)Nc2cccc(OC(F)F)c2)ccc1F` [Compound 697, 1-[3-(difluoromethoxy)phenyl]-3-(4-fluoro-3-methylphenyl)urea] is < 2 µM. As for `Cc1ccc(F)cc1NC(=O)Nc1ccc(OC(C)C)cc1` [Compound 698, 1-(5-fluoro-2-methylphenyl)-3-(4-isopropoxyphenyl)urea], the IC50 is < 2 µM.

As for `Cc1ccc(F)c(NC(=O)Nc2cccc(OC(F)F)c2)c1` [Compound 699, 1-[3-(difluoromethoxy)phenyl]-3-(2-fluoro-5-methylphenyl)urea], the IC50 is < 2 µM. The figure for `Cc1ccc(F)cc1NC(=O)Nc1cccc(OC(F)F)c1` [Compound 700, 1-[3-(difluoromethoxy)phenyl]-3-(5-fluoro-2-methylphenyl)urea] is < 2 µM. For `COc1ccc(NC(=O)Nc2cc(F)cc(F)c2)cc1` [Compound 701, 1-(3,5-difluorophenyl)-3-(4-methoxyphenyl)urea], the IC50 is < 2 µM. The same measure for `CCOc1cccc(NC(=O)Nc2cc(F)cc(F)c2)c1` [Compound 702, 1-(3,5-difluorophenyl)-3-(3-ethoxyphenyl)urea]: < 2 µM.

In the case of `CCOc1cccc(NC(=O)Nc2ccc(C)cc2C)c1` [Compound 703, 1-(2,4-dimethylphenyl)-3-(3-ethoxyphenyl)urea], the IC50 was < 2 µM. The figure for `CCOc1ccc(NC(=O)Nc2cc(C)cc(C)c2)cc1` [Compound 704, 1-(3,5-dimethylphenyl)-3-(4-ethoxyphenyl)urea] is < 2 µM. The same measure for `COCc1ccc(NC(=O)Nc2cc(F)cc(F)c2)cc1` [Compound 705, 1-(3,5-difluorophenyl)-3-[4-(methoxymethyl)phenyl]urea]: < 2 µM; for `CCCOc1ccc(NC(=O)Nc2cc(C)cc(C)c2)cc1` [Compound 706, 1-(3,5-dimethylphenyl)-3-(4-propoxyphenyl)urea]: < 2 µM. As to `Cc1cc(C)cc(NC(=O)Nc2cccc(OC(C)C)c2)c1` [Compound 707, 1-(3,5-dimethylphenyl)-3-(3-isopropoxyphenyl)urea], the IC50 was < 2 µM. The figure for `CC(C)Oc1cccc(NC(=O)Nc2cc(F)cc(F)c2)c1` [Compound 708, 1-(3,5-difluorophenyl)-3-(3-isopropoxyphenyl)urea] is < 2 µM; for `CC(C)Oc1ccc(NC(=O)Nc2cc(F)cc(F)c2)cc1` [Compound 709, 1-(3,5-difluorophenyl)-3-(4-isopropoxyphenyl)urea] it is < 2 µM. The figure for `Cc1cc(C)cc(NC(=O)Nc2cccc(OC(F)F)c2)c1` [Compound 710, 1-[3-(difluoromethoxy)phenyl]-3-(3,5-dimethylphenyl)urea] is < 2 µM. In the case of `Cc1ccc(NC(=O)Nc2cccc(OC(F)F)c2)c(C)c1` [Compound 711, 1-[3-(difluoromethoxy)phenyl]-3-(2,4-dimethylphenyl)urea], the IC50 is < 2 µM. The figure for `COC(=O)c1cccc(NC(=O)Nc2ccc(CC#N)cc2)c1` [Compound 712, methyl 3-[({[4-(cyanomethyl)phenyl]amino}carbonyl)amino]benzoate] is < 2 µM.
